pIC50: −log10 of the molar value.

For orientation: pIC50 means −log10 of the IC50, conventionally taken in molar units. The term IC50 denotes the concentration that gives 50% inhibition.

In one data set the test system is HCT-116. Briefly: cells. Conditions: Homo sapiens, HCT-116, 48 h.
The test system of a further data set is KYSE-30. The experiment in a line: cells. Conditions: Homo sapiens, KYSE-30, 48 h.
The subject of another data set is MGC-803. The experiment in a line: Antiproliferative activity against human MGC-803 cells assessed as inhibition of cell proliferation incubated for 48 hrs by MTT assay. Type of data set: functional, cell-based. Conditions: MGC-803, 48 h. (In general: Tetrazolium assays rely on reduction of a dye to a coloured formazan, in cell work by metabolically active cells.)

Data set [1] is described as follows: Cytotoxicity against HUVEC cells assessed as inhibition of cell growth incubated for 48 hrs by MTT assay. Type of data set: toxicity, cell-based. Conditions: human.
A short description of data set [2]: Toxicity in female BALB/c-nu nude mouse xenografted with human KYSE-30 cells assessed as effect on body weight at 6 to 12 mg/kg, ip administered for 15 days. Type of data set: organism-based. Conditions: in vivo, 360 h, dose 6-12 mg/kg, time 15 day. (Xenograft models place foreign cells or tissue in a host animal.)

Description for HCT-116: Antiproliferative activity against human HCT-116 cells assessed as inhibition of cell proliferation incubated for 48 hrs by MTT assay
Description for KYSE-30: Antiproliferative activity against human KYSE-30 cells assessed as inhibition of cell proliferation incubated for 48 hrs by MTT assay

For `CCCOc1ccc(-c2cnoc2-c2cc(C)nc3ccccc23)cc1`, the pIC50 is < 6.10 with HCT-116, < 6.10 in the data set on KYSE-30 and 7.24 with MGC-803.

Regarding `COc1ccc(-c2cn[nH]c2-c2ccnc3ccccc23)cc1[N+](=O)[O-]`, the pIC50 is < 5.00 in the data set with HCT-116, < 5.60 in the data set with KYSE-30 and 5.70 in the data set with MGC-803.

As to `CCOc1ccc(-c2cn[nH]c2-c2ccnc3ccccc23)cc1`, the pIC50 is 6.36 with HCT-116, 5.50 in the data set with KYSE-30 and 6.60 with MGC-803.

Regarding `COc1ccc(-c2cn[nH]c2-c2cc(C)nc3ccccc23)cc1`, the pIC50 in the data set with HCT-116 was 7.17; with KYSE-30, 7.04; in the data set with MGC-803, 7.41. The IC50 at 48 h in data set [1] was > 710 nM.

For `COc1cccc(-c2cn[nH]c2-c2cc(C)nc3ccccc23)c1`, the pIC50 is 6.61 with HCT-116, 6.39 in the data set on KYSE-30 and 6.53 with MGC-803.

Regarding `c1ccc2c(-c3[nH]nnc3-c3ccc4sccc4c3)ccnc2c1`, the pIC50 in the data set with HCT-116, with KYSE-30 and in the data set with MGC-803 was < 5.00 in each case.

With `COc1ccc(-c2[nH]nnc2-c2ccnc3ccccc23)cc1`, the pIC50 with HCT-116 was 6.11; in the data set on KYSE-30, 5.87; in the data set with MGC-803 it was 6.82.

Turning to `COc1ccccc1-c1[nH]nnc1-c1ccnc2ccccc12`, the pIC50 in the data set on HCT-116, in the data set on KYSE-30 and in the data set on MGC-803 was < 5.00 each time.

With `c1ccc2c(-c3[nH]nnc3-c3ccc4c(c3)CCO4)ccnc2c1`, the results for the pIC50 in the data set on HCT-116, in the data set with KYSE-30 and in the data set on MGC-803 were < 5.00, 5.20 and 5.24, respectively.

Regarding `c1ccc2c(-c3[nH]nnc3-c3ccc4sc5ccccc5c4c3)ccnc2c1`, the pIC50 with HCT-116, with KYSE-30 and in the data set on MGC-803 was < 5.00 each time.

On to `COc1ccc(-c2cnoc2-c2cc(C)nc3ccccc23)cc1[N+](=O)[O-]`, for which the pIC50 in the data set with HCT-116 was 7.27; with KYSE-30, 6.99; with MGC-803, 7.19.

Take `COc1ccc(-c2cnoc2-c2ccnc3ccccc23)cc1[N+](=O)[O-]`: the pIC50 is 5.63 in the data set on HCT-116, 6.71 in the data set on KYSE-30 and 7.55 with MGC-803.

With `Cc1cc(-c2[nH]ncc2-c2ccc3c(c2)CCO3)c2ccccc2n1`, the pIC50 in the data set with HCT-116 was 6.13; with KYSE-30 it was 6.31; with MGC-803 it was 5.49.

For the compound `CCCOc1ccc(-c2cn[nH]c2-c2cc(C)nc3ccccc23)cc1`, the pIC50 is 7.05 with HCT-116, < 6.10 with KYSE-30 and 6.89 with MGC-803.

As for `COc1ccc(-c2cn[nH]c2-c2ccnc3ccccc23)cc1`, the negative logarithm of the IC50 (pIC50) in the data set with HCT-116 was 6.02; in the data set on KYSE-30 it was 5.99; in the data set on MGC-803, 6.70.

Turning to `c1ccc2c(-c3[nH]nnc3-c3ccc4oc5ccccc5c4c3)ccnc2c1`, the pIC50 in the data set on HCT-116, with KYSE-30 and with MGC-803 was < 5.00 throughout.

With `COc1cccc(-c2cnoc2-c2ccnc3ccccc23)c1`, the results for the pIC50 in the data set on HCT-116, with KYSE-30 and in the data set on MGC-803 were 5.27, 5.34 and 5.60, respectively.

In the case of `c1ccc2c(-c3[nH]nnc3-c3ccc4[nH]c5ccccc5c4c3)ccnc2c1`, the pIC50 in the data set with HCT-116, in the data set with KYSE-30 and in the data set on MGC-803 was < 5.00 each time.

As to `CCOc1ccc(-c2cnoc2-c2cc(C)nc3ccccc23)cc1`, the pIC50 was < 6.10 in the data set on HCT-116, 7.85 with KYSE-30 and 7.74 with MGC-803. Besides, in data set [1], the IC50 at 48 h is > 710 nM. For the same compound, the Activity result in data set [2] is “Non-Toxic”.

With `Cc1cc(-c2oncc2-c2ccc3c(c2)CCO3)c2ccccc2n1`, the values for the pIC50 with HCT-116, with KYSE-30 and with MGC-803 were < 6.10, < 6.10 and 6.39, respectively.

`Cc1ccccc1-c1nn[nH]c1-c1ccnc2ccccc12`: the pIC50 with HCT-116, with KYSE-30 and with MGC-803 was < 5.00 each time.

With `CCOc1ccc(-c2cn[nH]c2-c2cc(C)nc3ccccc23)cc1`, the pIC50 in the data set with HCT-116 was 7.36; with KYSE-30, 7.19; in the data set with MGC-803, 7.51. For the same compound, the IC50 at 48 h in data set [1] was > 710 nM.

As to `CC(C)Oc1ccc(-c2cn[nH]c2-c2ccnc3ccccc23)cc1`, the pIC50 in the data set on HCT-116 was < 5.00; with KYSE-30, < 5.00; with MGC-803 it was 5.32.

Turning to `Cc1cc(-c2[nH]ncc2-c2ccc(OC(C)C)cc2)c2ccccc2n1`, the results for the pIC50 in the data set on HCT-116, in the data set on KYSE-30 and with MGC-803 were < 6.10, < 6.10 and 6.48, respectively.

Turning to `c1ccc2c(-c3[nH]nnc3-c3ccc4[nH]ccc4c3)ccnc2c1`, the pIC50 in the data set on HCT-116 is 6.68; in the data set with KYSE-30, 6.75; in the data set with MGC-803, 6.73.

Consider `CCCOc1ccc(-c2cnoc2-c2ccnc3ccccc23)cc1`, for which the values for the pIC50 in the data set with HCT-116, in the data set on KYSE-30 and in the data set on MGC-803 were 6.22, 6.15 and 6.36, respectively.

Turning to `COc1ccccc1-c1cn[nH]c1-c1ccnc2ccccc12`, the pIC50 in the data set with HCT-116, in the data set on KYSE-30 and with MGC-803 was < 5.00 each time.

As to `c1cc(-c2nn[nH]c2-c2ccnc3ccccc23)c2occc2c1`, the pIC50 in the data set with HCT-116, in the data set with KYSE-30 and in the data set with MGC-803 was < 5.00 each time.

As for `Cc1ccc(-c2nn[nH]c2-c2ccnc3ccccc23)cc1`, the pIC50 in the data set with HCT-116 is 5.43; in the data set with KYSE-30, 5.78; in the data set with MGC-803, 5.24.

Regarding `COc1ccccc1-c1cnoc1-c1ccnc2ccccc12`, the pIC50 in the data set on HCT-116, with KYSE-30 and with MGC-803 was < 5.00 in each case.

Turning to `COc1cccc(-c2cn[nH]c2-c2ccnc3ccccc23)c1`, the pIC50 in the data set with HCT-116 is 5.26; in the data set with KYSE-30, 5.50; with MGC-803, 5.81.

With `CCOc1ccc(-c2cnoc2-c2ccnc3ccccc23)cc1`, the pIC50 in the data set with HCT-116 is 7.41; with KYSE-30, 6.91; in the data set on MGC-803 it was 7.85.

As to `c1ccc2c(-c3oncc3-c3ccc4c(c3)CCO4)ccnc2c1`, the negative logarithm of the IC50 (pIC50) with HCT-116 is < 5.00; in the data set with KYSE-30 it was 6.14; in the data set on MGC-803, 5.67.

As to `COc1ccc(-c2nn[nH]c2-c2ccnc3ccccc23)cc1O`, the pIC50 in the data set with HCT-116 was 7.62; in the data set on KYSE-30 it was 7.68; with MGC-803 it was 7.49.

As to `COc1cccc(-c2cnoc2-c2cc(C)nc3ccccc23)c1`, the pIC50 was 6.54 in the data set with HCT-116, 6.46 with KYSE-30 and 7.00 in the data set on MGC-803.

For the compound `COc1ccccc1-c1cn[nH]c1-c1cc(C)nc2ccccc12`, the pIC50 in the data set on HCT-116, with KYSE-30 and in the data set on MGC-803 was < 6.10 each time.

Take `COc1cccc(-c2[nH]nnc2-c2ccnc3ccccc23)c1`: the pIC50 with HCT-116, in the data set on KYSE-30 and with MGC-803 was < 5.00 throughout.

Regarding `Cc1cccc(-c2nn[nH]c2-c2ccnc3ccccc23)c1`, the pIC50 in the data set on HCT-116, with KYSE-30 and in the data set with MGC-803 was < 5.00 each time.

Regarding `Cc1cc(-c2oncc2-c2ccc(OC(C)C)cc2)c2ccccc2n1`, the pIC50 in the data set on HCT-116 was 6.88; in the data set with KYSE-30 it was 6.65; in the data set on MGC-803, 7.31.

Consider `COc1ccc(-c2cnoc2-c2ccnc3ccccc23)cc1`, for which the pIC50 with HCT-116 was 6.01; in the data set on KYSE-30, 6.45; in the data set with MGC-803, 7.62.

For the compound `CCCOc1ccc(-c2cn[nH]c2-c2ccnc3ccccc23)cc1`, the negative-log IC50 (pIC50) in the data set with HCT-116 is 5.22; in the data set on KYSE-30, 5.19; in the data set on MGC-803, 6.06.

Take `c1ccc2c(-c3[nH]ncc3-c3ccc4c(c3)CCO4)ccnc2c1`: the pIC50 with HCT-116 is < 5.00; in the data set with KYSE-30 it was 5.00; in the data set on MGC-803, < 5.00.

With `c1ccc2c(-c3[nH]nnc3-c3ccc4occc4c3)ccnc2c1`, the values for the pIC50 with HCT-116, in the data set with KYSE-30 and in the data set on MGC-803 were 5.11, 5.47 and 5.07, respectively.

Take `CC(C)Oc1ccc(-c2cnoc2-c2ccnc3ccccc23)cc1`: the pIC50 was 5.35 with HCT-116, 5.82 in the data set with KYSE-30 and 6.31 in the data set with MGC-803.

Regarding `CC(C)Oc1ccc(-c2nn[nH]c2-c2ccnc3ccccc23)cc1`, the results for the pIC50 with HCT-116, with KYSE-30 and in the data set on MGC-803 were 6.15, 6.61 and 5.47, respectively.

Consider `CCOc1ccc(-c2[nH]nnc2-c2ccnc3ccccc23)cc1`, for which the results for the pIC50 with HCT-116, in the data set on KYSE-30 and in the data set with MGC-803 were 6.42, 6.54 and 7.23, respectively.

On to `COc1ccccc1-c1cnoc1-c1cc(C)nc2ccccc12`, for which the values for the pIC50 with HCT-116, with KYSE-30 and in the data set with MGC-803 were 5.07, 5.12 and 5.71, respectively.

These data come from ChEMBL document CHEMBL5608174, “Synthesis and biological evaluation of 4-phenyl-5-quinolinyl substituted isoxazole analogues as potent cytotoxic and tubulin polymerization inhibitors against ESCC” (Eur J Med Chem, 2024).
